This is an account of results in ChEMBL document CHEMBL1201862, “PubChem BioAssay data set” (2004).

Some test systems named below: A549; IGROV-1; KM12; SK-MEL-28; COLO 205; RXF 393; MDA-MB-231; SNB-75; NCI/ADR-RES; OVCAR-5; TK-10; PC-3; Hs-578T; OVCAR-4; RPMI-8226; UACC-62; 786-0; HCT-116; SK-MEL-5; MDA-MB-435.
Holding throughout (assay): NCI-60 cell line screen, 48 h

Structures are written as SMILES.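 Each compound was tested at five concentrations against cells in 96-well plates for 48 hours. GI50 = concentration required for 50% inhibition of growth.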 Activity calls are given as the source filed them. No stated cut-off is given here; in the data, active = GI50 up to about 1.1 µM and inactive = higher.

Consider `C/C(=C\CBr)CCC(Br)C(C)(C)Br` (stereo not given), for which the GI50 in the test with A549, in the test with IGROV-1, with KM12, in the test on SK-MEL-28, in the test with COLO 205 and in the test on RXF 393 was > 100 µM (inactive) in each case. The GI50 in the test with MDA-MB-231 is > 100 µM (inactive); with SNB-75, > 91.8 µM (inactive); with NCI/ADR-RES, > 100 µM (inactive); in the test with OVCAR-5, > 100 µM (inactive); with TK-10, > 100 µM (inactive); in the test with PC-3 it was > 100 µM (inactive). The GI50 in the test on Hs-578T, with OVCAR-4, with RPMI-8226, in the test on UACC-62, in the test on 786-0 and in the test with HCT-116 was > 100 µM (inactive) each time. Further, the GI50 in the test on SK-MEL-5 and in the test on MDA-MB-435 was > 100 µM (inactive) throughout.
As for `O=[N+]([O-])c1oc2ccc3ccccc3c2c1CCO`, the GI50 in the test with A549 was 1.9 µM (inactive); in the test with IGROV-1 it was 1.32 µM (inactive); with KM12 it was 9.33 µM (inactive); with SK-MEL-28 it was 1.38 µM (inactive); with COLO 205, 0.346 µM (active); with RXF 393, 1.58 µM (inactive). The GI50 in the test on MDA-MB-231 is 11.1 µM (inactive); with SNB-75, 4.41 µM (inactive); in the test on NCI/ADR-RES it was 4.79 µM (inactive); in the test on OVCAR-5 it was 7.23 µM (inactive); in the test on TK-10, 4.97 µM (inactive); in the test with PC-3 it was 13.1 µM (inactive). Moreover, the GI50 in the test on Hs-578T is 5.22 µM (inactive); in the test on OVCAR-4, 3.18 µM (inactive); in the test on RPMI-8226 it was 3.96 µM (inactive); with UACC-62, 2.87 µM (inactive); in the test with 786-0, 5.27 µM (inactive); with HCT-116, 2.29 µM (inactive). Also, the GI50 is 0.546 µM (active) in the test with SK-MEL-5 and 1.53 µM (inactive) in the test on MDA-MB-435.
Take `CCc1n[nH]c(=O)n1/N=C/c1ccccc1O`: the GI50 in the test with A549 is > 100 µM (inactive); with IGROV-1, 64.9 µM (inactive); in the test on KM12, > 100 µM (inactive); in the test on SK-MEL-28 it was > 100 µM (inactive); with COLO 205, > 100 µM (inactive); in the test on RXF 393, > 100 µM (inactive). Moreover, the GI50 in the test with MDA-MB-231, in the test with SNB-75, in the test on NCI/ADR-RES, in the test with OVCAR-5, in the test on TK-10 and in the test with PC-3 was > 100 µM (inactive) in each case. Also, the GI50 is 28 µM (inactive) in the test on Hs-578T; > 100 µM (inactive) in the test with OVCAR-4; > 100 µM (inactive) with RPMI-8226; > 100 µM (inactive) in the test with UACC-62; > 100 µM (inactive) with 786-0; > 100 µM (inactive) in the test on HCT-116. The GI50 in the test on SK-MEL-5 and in the test on MDA-MB-435 was > 100 µM (inactive) in each case.
As for `Cc1ccc(S(=O)(=O)CC2(Br)CCc3ccccc3C2=O)cc1` (stereo not given), the GI50 is 45.3 µM (inactive) with A549; 17.5 µM (inactive) with IGROV-1; 41 µM (inactive) in the test on KM12; 17.2 µM (inactive) in the test on SK-MEL-28; 18.1 µM (inactive) in the test with COLO 205; 18.1 µM (inactive) in the test with RXF 393. In addition, the GI50 in the test on MDA-MB-231 is 28 µM (inactive); in the test on SNB-75, 29.9 µM (inactive); in the test on NCI/ADR-RES it was 48.9 µM (inactive); in the test on OVCAR-5 it was 51.1 µM (inactive); in the test on TK-10, 33 µM (inactive); with PC-3 it was 42.4 µM (inactive). The GI50 was 32.6 µM (inactive) in the test on Hs-578T; 27.7 µM (inactive) with OVCAR-4; 38.1 µM (inactive) in the test on RPMI-8226; 23 µM (inactive) in the test with UACC-62; 42.9 µM (inactive) with 786-0; 47.1 µM (inactive) with HCT-116. In addition, the figures for the GI50 in the test with SK-MEL-5 and with MDA-MB-435 were 17.6 µM (inactive) and 16.5 µM (inactive), respectively.
Take `C[C@H](CCCOS(C)(=O)=O)[C@H]1CC[C@H]2[C@@H]3CC[C@@H]4C[C@H](OS(C)(=O)=O)CC[C@]4(C)[C@H]3CC[C@]12C`: the GI50 in the test on A549 was 17 µM (inactive); in the test with IGROV-1, 30.1 µM (inactive); in the test on KM12 it was 29.2 µM (inactive); in the test with SK-MEL-28, > 100 µM (inactive); in the test on COLO 205 it was > 100 µM (inactive); in the test on RXF 393, 52 µM (inactive). Besides, the GI50 with MDA-MB-231 is 13.8 µM (inactive); with SNB-75, 31.8 µM (inactive); in the test with NCI/ADR-RES, 26.7 µM (inactive); in the test on OVCAR-5, 39.3 µM (inactive); in the test with TK-10, 15.7 µM (inactive); in the test on PC-3, 20.6 µM (inactive). The GI50 in the test on Hs-578T is 24.4 µM (inactive); with OVCAR-4, 27.9 µM (inactive); in the test on RPMI-8226, 17.1 µM (inactive); with UACC-62, 22.8 µM (inactive); with 786-0, 31 µM (inactive); in the test on HCT-116 it was 29.5 µM (inactive). Moreover, the GI50 was 29.8 µM (inactive) in the test on SK-MEL-5 and 20.5 µM (inactive) in the test with MDA-MB-435.
As for `O=C(NNC(=O)c1ccccc1S)c1ccccc1S` [BIS(THIOSALICYL)HYDRAZIDE], the GI50 is 14.3 µM (inactive) with A549; 7.29 µM (inactive) in the test with IGROV-1; 24.5 µM (inactive) in the test with KM12; > 25 µM (inactive) in the test with SK-MEL-28; 11.1 µM (inactive) in the test on COLO 205; 22.6 µM (inactive) in the test with RXF 393. Further, the GI50 with MDA-MB-231 is > 25 µM (inactive); with SNB-75, 18 µM (inactive); with NCI/ADR-RES it was 11.3 µM (inactive); in the test with OVCAR-5, 12.4 µM (inactive); in the test on TK-10 it was > 25 µM (inactive); in the test with PC-3, 32.1 µM (inactive). The GI50 in the test on Hs-578T was 45 µM (inactive); in the test with OVCAR-4, 15.6 µM (inactive); in the test with RPMI-8226 it was 18.4 µM (inactive); in the test with UACC-62 it was 9.27 µM (inactive); in the test on 786-0, 9.42 µM (inactive); with HCT-116 it was 6.79 µM (inactive). For the same molecule, the GI50 was 23 µM (inactive) in the test with SK-MEL-5 and 14.6 µM (inactive) in the test on MDA-MB-435.
Turning to `CC(=O)NC1C(OCc2ccccc2)OC(CO)C(O)C1OC(C)C(=O)NC(C(=O)NC(CCC(=O)NCCCCNc1c2ccccc2nc2cccc([N+](=O)[O-])c12)C(N)=O)C(C)C` (stereo not given), the GI50 is 1.29 µM (inactive) in the test on A549; 2.05 µM (inactive) in the test on IGROV-1; 2.36 µM (inactive) with KM12; 2.67 µM (inactive) in the test with SK-MEL-28; 1.05 µM (active) in the test with COLO 205; 1.56 µM (inactive) in the test on RXF 393. The GI50 was 2.71 µM (inactive) in the test with MDA-MB-231; 2.7 µM (inactive) in the test with SNB-75; 49.2 µM (inactive) with NCI/ADR-RES; 2.71 µM (inactive) with OVCAR-5; 3.1 µM (inactive) in the test on TK-10; 2.67 µM (inactive) in the test on PC-3. Moreover, the GI50 with Hs-578T was 8.57 µM (inactive); in the test with OVCAR-4, 1.24 µM (inactive); in the test on RPMI-8226 it was 0.76 µM (active); in the test with UACC-62, 2.09 µM (inactive); in the test on 786-0, 1.81 µM (inactive); with HCT-116 it was 0.975 µM (active). Moreover, the figures for the GI50 in the test with SK-MEL-5 and with MDA-MB-435 were 2.22 µM (inactive) and 1.45 µM (inactive), respectively.
In the case of `Cc1cc(C)nc(NS(=O)(=O)c2ccc(NN=c3c4ccccc4n(C)c4ccccc34)cc2)n1`, the GI50 is 35.4 µM (inactive) with A549; 45.8 µM (inactive) with IGROV-1; 52.7 µM (inactive) with KM12; 37 µM (inactive) with SK-MEL-28; 29.7 µM (inactive) in the test on COLO 205; 7.62 µM (inactive) in the test with RXF 393. The GI50 is 21.3 µM (inactive) in the test on MDA-MB-231; 12.7 µM (inactive) with SNB-75; 38.2 µM (inactive) in the test with NCI/ADR-RES; 26.9 µM (inactive) in the test on OVCAR-5; 28.6 µM (inactive) with TK-10; 22 µM (inactive) with PC-3. Also, the GI50 in the test on Hs-578T was 32.4 µM (inactive); with OVCAR-4, 23.6 µM (inactive); in the test with RPMI-8226, 27.5 µM (inactive); in the test with UACC-62, 20.8 µM (inactive); in the test with 786-0 it was 30.2 µM (inactive); in the test with HCT-116 it was 25.7 µM (inactive). Moreover, the GI50 in the test with SK-MEL-5 was 17.2 µM (inactive); in the test on MDA-MB-435, 23.8 µM (inactive).
As to `Nc1cc(C2CCCc3c2[nH]c2ccccc32)ccc1O` (stereo not given), the GI50 in the test with A549 was 24.6 µM (inactive); in the test on IGROV-1, 38.2 µM (inactive); in the test on KM12 it was 20.1 µM (inactive); in the test on SK-MEL-28 it was > 100 µM (inactive); with COLO 205, 45.4 µM (inactive); in the test on RXF 393, 55.8 µM (inactive). The GI50 with MDA-MB-231 was 84.5 µM (inactive); in the test on SNB-75, 52 µM (inactive); with NCI/ADR-RES it was 22 µM (inactive); in the test with OVCAR-5 it was 24.1 µM (inactive); in the test on TK-10 it was > 100 µM (inactive); with PC-3 it was 38.5 µM (inactive). Also, the GI50 in the test on Hs-578T is 69.8 µM (inactive); in the test on OVCAR-4, 16.9 µM (inactive); in the test on RPMI-8226, 0.271 µM (active); with UACC-62, 10.8 µM (inactive); with 786-0, 15.3 µM (inactive); in the test with HCT-116 it was 20.3 µM (inactive). Also, the GI50 with SK-MEL-5 was 6 µM (inactive); in the test on MDA-MB-435, 12.3 µM (inactive).
In the case of `O=C1N/C(=N/N=C/C(O)C(O)C(O)C(O)CO)N/C1=C\c1c[nH]c2ccccc12` (stereo not given), the GI50 in the test with A549 was > 100 µM (inactive); in the test on IGROV-1, > 100 µM (inactive); in the test with KM12, 52.4 µM (inactive); with SK-MEL-28, > 100 µM (inactive); with COLO 205, > 100 µM (inactive); with RXF 393, > 100 µM (inactive). Besides, the GI50 in the test with MDA-MB-231 was 34.2 µM (inactive); with SNB-75, > 100 µM (inactive); in the test with NCI/ADR-RES it was > 100 µM (inactive); with OVCAR-5, > 100 µM (inactive); in the test on TK-10, > 100 µM (inactive); with PC-3, 20.3 µM (inactive). The GI50 in the test on Hs-578T was > 100 µM (inactive); with OVCAR-4 it was > 100 µM (inactive); in the test with RPMI-8226 it was 89.7 µM (inactive); with UACC-62, > 100 µM (inactive); in the test with 786-0, > 100 µM (inactive); in the test on HCT-116 it was > 100 µM (inactive). The GI50 with SK-MEL-5 and in the test with MDA-MB-435 was > 100 µM (inactive) in each case.
